Source: patent US20090068290A1, “BIFEPRUNOX DOSES FOR TREATING SCHIZOPHRENIA” (priority 2006, published 2009)

Legend:
[1] = Pooled metabolic analysis, 6-week studies: lipid profile; conditions: endpoint, 6-week studies, BX total, OLZ 15 mg
Source text: (§1) OBJECTIVE: To examine the metabolic effects of bifeprunox in patients with acute and stable schizophrenia.
(§2) METHODS: Metabolic data was compiled from one 6-month and four 6-week studies (i.e., a treatment period) of bifeprunox in patients with stable and acute schizophrenia, respectively. In the 6-month study, patients received bifeprunox (n=331) or placebo (PBO) (n=166). […] Metabolic evaluations included body weight, body mass index (BMI), plasma glucose and lipid profiles. Fasting glucose and lipid values were assessed in one 6-week study and in the 6-month study. Triglyceride:HDL ratio (TG:HDL) was calculated as a marker of insulin resistance. No statistical analyses were performed; only descriptive statistics are presented.

[2] = Pooled metabolic analysis, 6-week studies: body weight; conditions: 6-week placebo controlled trials, BX total doses, RISP 6 mg, OLZ 15 mg, HAL 10 mg; for Weight, Mean (SD) change from baseline: endpoint
Source text: as §1, §2

[3] = Pharmacokinetic interaction of lithium and bifeprunox in healthy male subjects; type: in vivo, human
Experimental: Because bifeprunox may be used in combination with the mood-stabilizing drug lithium for the treatment of patients with psychoses and mood disorders, the effect of multiple doses of bifeprunox on the pharmacokinetic (PK) profile of lithium was evaluated. Lithium has a narrow therapeutic index that can complicate therapy, and serum levels greater than 1.5 mmol/L carry a greater risk of lithium toxicity than do lower levels.
METHODS: This was a single center, double-blind, randomized, placebo-controlled, parallel-design study in 48 healthy male subjects. All subjects were to receive open-label lithium (450 mg) twice daily on days 1 through 8 and, provided serum levels were stable on days 5 through 7, again on days 9 through 20. Subjects whose serum levels were stable on days 5 through 7 were included in those randomized to receive, in addition to lithium 450 mg twice daily, either placebo or a rising dose of bifeprunox (0.025-40 mg) once daily on days 9 through 17, and placebo or bifeprunox 40 mg on days 18 through 21. Only a single morning dose of lithium 450 mg was administered on day 21. Lithium, steady-state Cmax, AUC over the dosing interval (0-t), and renal clearance (CL-R) values were compared between the bifeprunox and placebo groups using ANCOVA with baseline values of lithium measured on day 8 as covariate.

[4] = test system: CYP2C9, CYP3A4, CYP2D6; assay: Metabolism and drug interactions of bifeprunox; conditions: in vivo
Source text: The objective of this study is to assess the pharmacokinetics (PK) of bifeprunox. The PK of bifeprunox in healthy subjects were investigated based on a pooled analysis of PK parameters from 21 clinical pharmacology studies. The pooled analysis included PK profiles after single and multiple doses to 132 and 399 subjects, respectively, and explored the potential effects of age, gender, body weight, and race. In addition, PK in patients with schizophrenia were investigated using a population PK approach based on samples from 376 patients in phase II studies and 434 patients in phase III studies.

[5] = non-fasting, RISP 6 mg, HAL 10 mg
[6] = lithium 450 mg twice daily with bifeprunox up to 40 mg once daily, healthy male subjects

## O=C(CCCN1CCC(O)(c2ccc(Cl)cc2)CC1)c1ccc(F)cc1 [HAL]
[1]; [5]
  Total cholesterol, Mean change (SD): 0.1 (0.7) mg/dL
  Triglycerides, Mean change (SD): −2.7 (0.6) mg/dL
[2]; baseline BMI 18.5-25 kg/m^2
  ≧7% weight decrease, (%): 3.6%
  ≧7% weight increase, (%): 7.1%
  Weight, Mean (SD) change from baseline: −0.0 (2.2) kg
[2]; baseline BMI All
  ≧7% weight decrease, (%): 2.0%
  ≧7% weight increase, (%): 4.0%
  Weight, Mean (SD) change from baseline: −0.1 (2.1) kg
[2]; baseline BMI <18.5 kg/m^2
  Weight, Mean (SD) change from baseline: 1.4 (1.3) kg
[2]; baseline BMI >25-30 kg/m^2
  Weight, Mean (SD) change from baseline: −1.1 (1.8) kg
[2]; baseline BMI >30 kg/m^2
  Weight, Mean (SD) change from baseline: 0.4 (2.1) kg

## Cc1cc2c(s1)Nc1ccccc1N=C2N1CCN(C)CC1 [OLZ]
[1]; fasting
  Fasting HDL, Mean change (SD): −1.4 (9.2) mg/dL
  Fasting HDL, Percentage mean change: −2.9%
  Fasting LDL, Mean change (SD): −0.3 (28.6) mg/dL
  Fasting LDL, Percentage mean change: −0.3%
  Total cholesterol, Mean change (SD): −4.0 (37.3) mg/dL
  Total cholesterol, Percentage mean change: −2.0%
  Triglycerides, Mean change (SD): −9.2 (90.4) mg/dL
  Triglycerides, Percentage mean change: −5.3%
[1]; [5]
  Total cholesterol, Mean change (SD): −0.7 (1.0) mg/dL
  Triglycerides, Mean change (SD): 24.6 (1.3) mg/dL
[2]; baseline BMI 18.5-25 kg/m^2
  ≧7% weight increase, (%): 22.7%
  Weight, Mean (SD) change from baseline: 2.1 (2.7) kg
[2]; baseline BMI <18.5 kg/m^2
  ≧7% weight increase, (%): 18.8%
  Weight, Mean (SD) change from baseline: 1.0 (1.9) kg
[2]; baseline BMI >25-30 kg/m^2
  ≧7% weight increase, (%): 13.2%
  Weight, Mean (SD) change from baseline: 2.3 (2.5) kg
[2]; baseline BMI >30 kg/m^2
  ≧7% weight increase, (%): 14.6%
  Weight, Mean (SD) change from baseline: 3.3 (4.0) kg
[2]; baseline BMI All
  Weight, Mean (SD) change from baseline: 2.4 (3.1) kg

## Cc1nc2n(c(=O)c1CCN1CCC(c3noc4cc(F)ccc34)CC1)CCCC2 [RISP]
[1]; [5]
  Total cholesterol, Mean change (SD): −2.6 (0.8) mg/dL
  Triglycerides, Mean change (SD): −7.4 (1.4) mg/dL
[2]; baseline BMI 18.5-25 kg/m^2
  ≧7% weight increase, (%): 7.3%
  Weight, Mean (SD) change from baseline: 1.5 (2.2) kg
[2]; baseline BMI <18.5 kg/m^2
  ≧7% weight increase, (%): 20.0%
  Weight, Mean (SD) change from baseline: 0.9 (2.3) kg
[2]; baseline BMI >25-30 kg/m^2
  ≧7% weight increase, (%): 13.3%
  Weight, Mean (SD) change from baseline: 2.1 (3.2) kg
[2]; baseline BMI >30 kg/m^2
  ≧7% weight decrease, (%): 1.2%
  ≧7% weight increase, (%): 8.5%
  Weight, Mean (SD) change from baseline: 1.6 (4.2) kg
[2]; baseline BMI All
  ≧7% weight decrease, (%): 0.4%
  ≧7% weight increase, (%): 9.8%
  Weight, Mean (SD) change from baseline: 1.7 (3.3) kg

## [Li] [lithium]
[3]; human, in vivo
  effect of co-administration of multiple doses of bifeprunox on lithium steady-state pharmacokinetics: no clinically relevant effect
[3]; [6]
  lithium renal clearance CL-R, treatment ratio (bifeprunox vs placebo group, geometric least square means): 0.94
  lithium steady-state AUC(0-t), treatment ratio (bifeprunox vs placebo group, geometric least square means): 1.13
  lithium steady-state Cmax, treatment ratio (bifeprunox vs placebo group, geometric least square means): 1.11
[4]
  PK of narrow therapeutic index compound on co-administration with bifeprunox: did not affect the PK of these compounds to any relevant extent

## CC(=O)CC(c1ccccc1)c1c(O)c2ccccc2oc1=O (centres unmarked) [warfarin, reference compound]
[4]
  PK of narrow therapeutic index compound on co-administration with bifeprunox: did not affect the PK of these compounds to any relevant extent
